Test results: PMC5955586, “Transport of enniatin B and enniatin B1 across the blood-brain barrier and hints for neurotoxic effects in cerebral cells” (PLoS ONE, 2018)

Columns and labels:
[1] = tested on: caspase-3; experiment: Caspase-3 activity in CCF-STTG1 lysates; assay type: cell-based, human; conditions: 48 h
Description: For studying caspase-3 activity CCF-STTG1 cells were seeded in 12 well tissue culture plates in a cell density of 2.25 × 10^5 cells/well. The cells were grown for 24 h until a confluence of at least 70% was reached, then the medium was changed to serum free medium (RPMI 1640 medium supplemented with 100 U/mL penicillin, 100 μg/mL streptomycin and 2 mM L-glutamine). Concentrations from 0.1 μM to 2.5 μM were chosen to prevent strong cytotoxic effects, which might interfere with the endpoint of interest. 24 h after adaption to serum free conditions, cells were incubated with ENN B and ENN B1. Caspase-3 activity was determined in lysates. […] 33 μL reaction solution were added to 30 μL of the supernatant and incubated for 1 and 2 h at 37°C, 5% CO2 and saturated humidified atmosphere and then measured at λex = 405 nm and λem = 520 nm (Infinite M200 PRO microplate reader). […] The results were calculated as μmol AFC/μg protein and normalized to the solvent treated control (ACN 0.25%).
For quantitation of the total protein content a bicinchoninic acid (BCA) assay kit (Sigma-Aldrich GmbH, Seelze, Germany) was applied. […] After that the absorbance was measured at 560 nm with a Infinite M200 PRO microplate reader (Tecan, Crailsheim, Germany).

[2] = tested on: CCF-STTG1 cells; experiment: LDH leakage in CCF-STTG1; assay type: cell-based, human; conditions: CCF-STTG1, 0.1 to 2.5 μM, 48 h
Description: For measurement of lactate dehydrogenase (LDH) leakage, cell lysates and treatment solutions (serum free medium with respective ENN B/B1 content) after incubation for 48 h were used. The cell lysates were prepared as described for caspase-3 activation assay. To determine the LDH activity, 15 μL of the lysate and 40 μL of the incubation medium were each added to 200 μL substrate buffer (100 mM HEPES, 10 mM sodium pyruvate and 0.21 mM NADH, adjusted to pH 7.0), incubated over the course of 30 min at 37°C and absorption was measured every 2 min at 355 nm in a Infinite M200 PRO microplate reader (Tecan, Crailsheim, Germany).

[3] = tested on: PBCEC; experiment: Barrier integrity of PBCEC (TEER and capacitance CCl); assay type: cell-based, porcine; conditions: for barrier impairing effect: 200 nM; for effect on TEER value / effect on monolayer confluency (capacitance CCl): 1 μM, 48 h
Description: Before starting each experiment, the TEER values and the electrical capacitance of all cell layers were measured via cellular impedance spectroscopy (cellZscope®, nanoAnalytics, Münster, Germany). […] TEER values relate to the constitution of the tight junctions limiting paracellular transfer of compounds. In addition to the TEER, electrical capacitances (CCl) were monitored for 48 h. Cellular phospholipid bilayers act like an electrical capacitor and also contribute to the cellular impedance. Changes of the CCl value give information about the integrity of the cell monolayer. In this experiment, a parallel set up was applied. For each treatment, one triplicate of filters was monitored via cellular impedance spectroscopy over the course of 48 h using a cellZscope® device–here, the basolateral compartment was prepared with 1650 μL serum free medium and the volume in the apical compartment was filled to 760 μL (ratio 1:2.17). Another triplicate for the same incubation conditions was kept in Transwell® filter cell culture multiple well plates (12 well format) over the course of 48 h. In the multiple well plates the ratio between the apical and the basolateral compartment was 1:3, therefore the starting volume in the apical compartment is 500 μL and 1500 μL in the basolateral compartment. Here, samples for quantitation of transfer of enniatins across the barrier were drawn after 1, 2.5, 6.5, 18, 24, 28, 42 and 48 hours in this given ratio i.e. 30 μL apical and 90 μL basolateral. After 48 h, the final TEER values of the filters from the multiple well plate were measured to ensure the stability of the cell layer throughout the experiment. To double check the integrity of the barrier, lucifer yellow (LY, 50 μM), as a paracellular transfer marker, was applied. The amount of LY found in the basolateral compartment after 1 h was measured at λex = 430 nm and λ em = 540 nm.

[4] = tested on: PBCEC monolayer; experiment: Transfer across PBCEC monolayer on Transwell filters (BBB model); assay type: in vitro ADME, porcine
[5] = tested on: Caco-2; conditions: cited from earlier work; for absorption: Caco-2, 4 h exposure; for duodenal bioavailability in vitro: Caco-2 model, 48 h
[6] = tested on: MRC-5 cells; set-up: method as in PMID 16730043; conditions: MRC-5, 24 h, Alamar Blue; cited from earlier work
[7] = set-up: method as in PMID 24239892; conditions: pigs, cited from earlier work
[8] = set-up: method as in PMID 27349679; conditions: mice; cited from earlier work
[9] = set-up: method as in PMID 25757886; conditions: ex vivo human skin; cited from earlier work
[10] = set-up: method as in PMID 21622627; conditions: liver microsomes human, dog and rat; cited from earlier work

Row | SMILES | maximum increase of caspase-3 activity (relative to solvent control) ([1]; CCF-STTG1, 1 μM) [%] | LDH release [2] | barrier impairing effect [3] | effect on TEER value [3] | effect on monolayer confluency (capacitance CCl) [3] | metabolites by high resolution mass spectrometry screening [4] | absorption [5] [%] | duodenal bioavailability in vitro [5] [%] | IC50 [6] [µM] | Tmax ([7]; oral) [min] | ka ([7]; oral) [h⁻¹] | oral bioavailability [7] | brain tissue distribution in the parenchyma [8] [%] | remaining in the capillaries [8] [%] | increase of caspase-3 activity compared to solvent control ([1]; CCF-STTG1, 2.5 μM) [fold] | permeation kp,v [9] [×10⁻⁶ cm/s] | metabolites formed [10]
1 | CC[C@H](C)[C@H]1C(=O)O[C@H](C(C)C)C(=O)N(C)[C@@H](C(C)C)C(=O)O[C@H](C(C)C)C(=O)N(C)[C@@H](C(C)C)C(=O)O[C@H](C(C)C)C(=O)N1C [ENN B1, enniatin B1] | 160 | no significant increase of LDH release | did not have any barrier impairing effect | does not lead to a breakdown of the TEER value | does not impair PBCEC confluency | no metabolites were detected | > 65 | > 50 | 4.7 | 14.4 | 4.66 | up to 91% | 95 | 5 | – | – | –
2 | CC(C)[C@H]1C(=O)O[C@H](C(C)C)C(=O)N(C)[C@@H](C(C)C)C(=O)O[C@H](C(C)C)C(=O)N(C)[C@@H](C(C)C)C(=O)O[C@H](C(C)C)C(=O)N1C [ENN B, enniatin B] | – | no significant increase of LDH release | did not have any barrier impairing effect | does not lead to a breakdown of the TEER value | does not impair PBCEC confluency | – | > 65 | > 50 | 9.8 | – | – | – | 95 | 5 | 2.7 | 0.00262 | several phase I metabolites
